Experimental findings from ChEMBL document CHEMBL1201862, “PubChem BioAssay data set” (2004) are described below.

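Step 1: Grow cells in 96-well plates. Step 2: Expose to compound for 48 hours at 5 concentrations. Step 3: Interpolate endpoints linearly; if unreached, use highest concentration. GI50 is the concentration that inhibits growth by half.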 Active and inactive are the calls of the source. Rule as the data show it: active = GI50 up to about 1.1 µM and inactive = higher.

Some test systems named below: U-251; MDA-MB-231; MOLT-4; T47D; TK-10; SK-MEL-28; UACC-257; EKVX; OVCAR-4; NCI/ADR-RES; SF-539; SF-295; HCT-116; DU-145; HCC 2998; HL-60; SNB-19; SK-MEL-5; SR; Malme-3M.
Common to all, as to assay: NCI-60 cell line screen, 48 h

With `COc1ccc(C(=O)/C=C/c2ccc(OCCSCCCCCCCCCCSCCOc3ccc(/C=C/C(=O)c4ccc(OC)cc4)cc3)cc2)cc1`, the GI50 in the assay with U-251, in the assay with MDA-MB-231, with MOLT-4, with T47D, in the assay on TK-10 and in the assay with SK-MEL-28 was > 100 µM (inactive) throughout. Further, the GI50 in the assay with UACC-257, in the assay on EKVX, with OVCAR-4, with NCI/ADR-RES, in the assay with SF-539 and in the assay on SF-295 was > 100 µM (inactive) each time. For the same compound, the GI50 in the assay on HCT-116, with DU-145, in the assay with HCC 2998, in the assay with HL-60, with SNB-19 and in the assay with SK-MEL-5 was > 100 µM (inactive) each time. In the assay with SR, the GI50 was > 100 µM (inactive).

For the compound `COc1ccc(/N=C2\C(=N/c3ccc(OC)cc3)N(S(=O)(=O)c3ccccc3)C(=S)N2c2ccc(OC)cc2)cc1`, the GI50 was > 100 µM (inactive) in the assay on U-251; 27.2 µM (inactive) with MDA-MB-231; > 100 µM (inactive) with MOLT-4; > 100 µM (inactive) in the assay with T47D; > 100 µM (inactive) in the assay with TK-10; > 100 µM (inactive) in the assay with SK-MEL-28. Besides, the GI50 with EKVX, with NCI/ADR-RES, in the assay on SF-539, with SF-295, in the assay with HCT-116 and in the assay on DU-145 was > 100 µM (inactive) each time. Moreover, the GI50 in the assay with HCC 2998 is > 100 µM (inactive); with SNB-19, > 100 µM (inactive); with SK-MEL-5 it was 86.5 µM (inactive); with SR, > 100 µM (inactive).

Turning to `COCCCN1C(=O)C2c3[nH]c4ccccc4c3C3CCC(C(C)(C)C)CC3C2C1=O` (stereo not drawn), the GI50 in the assay with U-251 is 17.7 µM (inactive); in the assay on MDA-MB-231, 21.7 µM (inactive); in the assay on MOLT-4 it was 24.7 µM (inactive); in the assay on T47D it was 48.4 µM (inactive); in the assay with TK-10 it was 59.3 µM (inactive); in the assay with SK-MEL-28, 38 µM (inactive). The GI50 in the assay with UACC-257 is 27.7 µM (inactive); in the assay on EKVX it was 34.4 µM (inactive); in the assay on OVCAR-4, 31.5 µM (inactive); with NCI/ADR-RES it was > 10 µM (inactive); in the assay with SF-539, 27.4 µM (inactive); in the assay on SF-295, 24.1 µM (inactive). For the same compound, the GI50 was 19.8 µM (inactive) in the assay on HCT-116; 58.9 µM (inactive) in the assay on DU-145; 20.3 µM (inactive) in the assay with HCC 2998; 23.4 µM (inactive) in the assay with HL-60; 33 µM (inactive) with SNB-19; 27.4 µM (inactive) with SK-MEL-5. Besides, the GI50 in the assay on SR is 25.4 µM (inactive).

Regarding `Cc1nnc(-n2c(O)cc(=O)n(-c3ccccc3)c2=S)nc1/C=C/c1ccc(N(C)C)cc1`, the GI50 is 10.1 µM (inactive) in the assay with U-251; > 35.6 µM (inactive) in the assay on MDA-MB-231; 15.6 µM (inactive) with MOLT-4; 6.62 µM (inactive) with T47D; > 39.4 µM (inactive) with TK-10; 18.5 µM (inactive) in the assay with SK-MEL-28. Further, the GI50 is 15.5 µM (inactive) in the assay on UACC-257; 9.23 µM (inactive) in the assay on EKVX; 11.4 µM (inactive) with OVCAR-4; 14.3 µM (inactive) with NCI/ADR-RES; 2.69 µM (inactive) with Malme-3M; 12.9 µM (inactive) in the assay with SF-295. Moreover, the GI50 with HCT-116 was 11.9 µM (inactive); in the assay on DU-145 it was 26.1 µM (inactive); in the assay with HCC 2998 it was 6.49 µM (inactive); with HL-60 it was 2.7 µM (inactive); with SNB-19, 20.4 µM (inactive); in the assay on SK-MEL-5, 3.58 µM (inactive). The GI50 with SR was 5.02 µM (inactive).

As to `Cn1c2ccccc2n2c3ncccc3c(=S)c(C#N)c12`, the GI50 in the assay with U-251, in the assay on MDA-MB-231, in the assay with MOLT-4, in the assay on T47D, in the assay on SK-MEL-28 and in the assay on EKVX was > 100 µM (inactive) each time. Moreover, the GI50 with OVCAR-4, with NCI/ADR-RES, in the assay on Malme-3M, in the assay with SF-295, with HCT-116 and in the assay on DU-145 was > 100 µM (inactive) each time. Moreover, the GI50 in the assay on HCC 2998 was > 100 µM (inactive); with HL-60, > 100 µM (inactive); in the assay on SNB-19 it was > 100 µM (inactive); in the assay on SK-MEL-5 it was > 100 µM (inactive); with SR it was 71.4 µM (inactive).

Regarding `COC(=O)[C@H](C)N1C(=O)N[C@@H](C(C)C)C1=O`, the GI50 in the assay with U-251, in the assay on MDA-MB-231, in the assay on MOLT-4, in the assay on T47D, with TK-10 and in the assay on SK-MEL-28 was > 100 µM (inactive) each time. Moreover, the GI50 in the assay on UACC-257, in the assay on EKVX, with OVCAR-4, with NCI/ADR-RES, in the assay with SF-539 and with Malme-3M was > 100 µM (inactive) each time. Also, the GI50 with SF-295, in the assay on HCT-116, with DU-145, in the assay with HCC 2998, with SNB-19 and in the assay with SK-MEL-5 was > 100 µM (inactive) in each case. Besides, in the assay on SR, the GI50 was > 100 µM (inactive).

On to `COC(=O)/C=C1\C(=O)Nc2ccc(Br)cc21`, for which the GI50 is 2.03 µM (inactive) in the assay on U-251; 2.51 µM (inactive) with MDA-MB-231; 0.962 µM (active) with MOLT-4; 2.16 µM (inactive) in the assay on T47D; 1.56 µM (inactive) in the assay with TK-10; 2.68 µM (inactive) with SK-MEL-28. Also, the GI50 is 1.37 µM (inactive) with UACC-257; 1.77 µM (inactive) in the assay on EKVX; 2.23 µM (inactive) with OVCAR-4; 1.91 µM (inactive) in the assay on NCI/ADR-RES; 2.33 µM (inactive) in the assay on Malme-3M; 2.3 µM (inactive) in the assay with SF-295. Further, the GI50 was 1.36 µM (inactive) in the assay on HCT-116; 1.86 µM (inactive) in the assay with DU-145; 2.22 µM (inactive) in the assay with HCC 2998; 1.59 µM (inactive) in the assay on HL-60; 3.24 µM (inactive) in the assay with SNB-19; 1.6 µM (inactive) in the assay on SK-MEL-5. Also, the GI50 with SR was 0.925 µM (active).

Turning to `CCC(=O)OCc1ccc2oc(=O)c(C(=O)Oc3cncc(Cl)c3)cc2c1`, the GI50 was > 100 µM (inactive) with U-251; > 100 µM (inactive) with MDA-MB-231; 30 µM (inactive) with MOLT-4; 98.6 µM (inactive) in the assay with T47D; 97.5 µM (inactive) in the assay on TK-10; > 100 µM (inactive) in the assay on SK-MEL-28. In addition, the GI50 in the assay with UACC-257 is > 100 µM (inactive); with EKVX it was > 100 µM (inactive); with OVCAR-4, > 100 µM (inactive); with NCI/ADR-RES, > 100 µM (inactive); in the assay on SF-539 it was > 100 µM (inactive); with Malme-3M, 66.7 µM (inactive). Moreover, the GI50 is > 100 µM (inactive) with SF-295; 80 µM (inactive) with HCT-116; > 100 µM (inactive) in the assay on DU-145; 35.6 µM (inactive) in the assay on HCC 2998; > 100 µM (inactive) in the assay on SNB-19; > 100 µM (inactive) with SK-MEL-5. For the same compound, in the assay on SR, the GI50 is 20.8 µM (inactive).

For `CC1CCN(C(C)C)P(=S)(Cc2ccccc2)O1` (stereo not drawn), the GI50 in the assay with U-251 is > 100 µM (inactive); in the assay with MDA-MB-231, > 100 µM (inactive); in the assay on MOLT-4, > 100 µM (inactive); in the assay with T47D, 11.2 µM (inactive); in the assay with TK-10 it was 75 µM (inactive); with SK-MEL-28 it was 13.6 µM (inactive). For the same compound, the GI50 in the assay with UACC-257 was 97.3 µM (inactive); in the assay on EKVX it was 75.3 µM (inactive); in the assay with OVCAR-4, 84.3 µM (inactive); with NCI/ADR-RES, > 100 µM (inactive); in the assay on SF-539, > 100 µM (inactive); with Malme-3M, > 100 µM (inactive). Besides, the GI50 with SF-295 is 34 µM (inactive); in the assay on HCT-116, 59.6 µM (inactive); in the assay on DU-145 it was > 100 µM (inactive); in the assay on HCC 2998, 83.9 µM (inactive); in the assay on SNB-19, > 100 µM (inactive); with SK-MEL-5, > 100 µM (inactive). Besides, the GI50 in the assay on SR is > 100 µM (inactive).

In the case of `C/C(=C\COP(=O)(O)OP(=O)(O)O)CCCOCc1ccccc1`, the GI50 with U-251, with MDA-MB-231, in the assay with MOLT-4, in the assay with T47D, in the assay on TK-10 and in the assay on SK-MEL-28 was > 100 µM (inactive) each time. The GI50 with UACC-257 is 38.4 µM (inactive); in the assay on EKVX, > 100 µM (inactive); in the assay on OVCAR-4, > 100 µM (inactive); with NCI/ADR-RES, > 100 µM (inactive); in the assay with SF-539, > 100 µM (inactive); in the assay on Malme-3M it was > 100 µM (inactive). The GI50 with SF-295 was > 100 µM (inactive); in the assay on HCT-116, > 100 µM (inactive); with DU-145 it was > 100 µM (inactive); in the assay with HL-60 it was 61.7 µM (inactive); with SNB-19, > 100 µM (inactive); in the assay with SK-MEL-5, 46.5 µM (inactive). Further, the GI50 in the assay on SR was > 100 µM (inactive).

With `Cc1sc2nc(-c3ccc(Cl)c([N+](=O)[O-])c3)c(/C=N/NC(=N)N)n2c1C`, the GI50 in the assay on U-251 is 0.341 µM (active); in the assay with MDA-MB-231, 0.615 µM (active); in the assay with MOLT-4, 1.5 µM (inactive); with T47D, 1.46 µM (inactive); with TK-10 it was 1.75 µM (inactive); with SK-MEL-28, 0.973 µM (active). The GI50 in the assay with UACC-257 was 1.29 µM (inactive); with EKVX, 1.69 µM (inactive); in the assay on NCI/ADR-RES, 2.04 µM (inactive); in the assay with SF-539, 1.64 µM (inactive); in the assay on Malme-3M, 2 µM (inactive); in the assay on SF-295, 1.76 µM (inactive). In addition, the GI50 was 1.93 µM (inactive) in the assay on DU-145; 1.1 µM (active) in the assay with HCC 2998; 1.71 µM (inactive) in the assay with HL-60; 1.48 µM (inactive) with SNB-19; 1.53 µM (inactive) in the assay on SK-MEL-5; 0.229 µM (active) in the assay on SR.
